Patent US20170050957A1, “4-AMINO-6-(HETEROCYCLIC)PICOLINATES AND 6-AMINO-2-(HETEROCYCLIC)PYRIMIDINE-4-CARBOXYLATES AND THEIR USE AS HERBICIDES” (Dow AgroSciences LLC, priority 2013, published 2017)
Where two headings read alike, the source gives them in different places.

How the values were obtained:
[1] = test system: Key Broadleaf Weed and Crop Species; experiment: Post-emergent Test II herbicidal activity (Table 15); type: in vivo; details: post-emergence, 336 h, 14 d; for pest or weed control at 35 g/ha: 35 g ai/ha; for pest or weed control at 70 g/ha: 70 g ai/ha; for pest or weed control at 140 g/ha: 140 g ai/ha
Method in brief: (§1)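 Greenhouse-grown seedlings at first/second true leaf receive a track spray at 187 L/ha, using a highest rate plus two-fold serial dilutions down to 1/16×. Watering is by subirrigation to avoid wash-off. Percent injury (0-100) is judged by eye at 14 d against untreated plants.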

[2] = test system: Key Grass and Sedge Weeds as well as Grass Crops; experiment: Post-emergent Test II herbicidal activity (Table 16); type: in vivo; details: post-emergence, 336 h, 14 d; for pest or weed control at 35 g/ha: 35 g ai/ha; for pest or weed control at 70 g/ha: 70 g ai/ha; for pest or weed control at 140 g/ha: 140 g ai/ha
Method in brief: as §1

[3] = Abutilon theophrasti, velvetleaf (Abutilon theophrasti), read-out: Visual Growth Reduction (%) 14 Days After Application, ABUTH
[4] = Amaranthus retroflexus, redroot pigweed (Amaranthus retroflexus), read-out: Visual Growth Reduction (%) 14 Days After Application, AMARE
[5] = Brassica napus, oilseed rape, canola (Brassica napus), read-out: Visual Growth Reduction (%) 14 Days After Application, BRSNN
[6] = Chenopodium album, lambsquarters (Chenopodium album), read-out: Visual Growth Reduction (%) 14 Days After Application, CHEAL
[7] = Euphorbia heterophylla, wild poinsettia (Euphorbia heterophylla), read-out: Visual Growth Reduction (%) 14 Days After Application, EPHHL
[8] = Helianthus annuus, sunflower (Helianthus annuus), read-out: Visual Growth Reduction (%) 14 Days After Application, HELAN
[9] = Cyperus esculentus, yellow nutsedge (Cyperus esculentus), read-out: Visual Growth Reduction (%) 14 Days After Application, CYPES
[10] = Echinochloa crus-galli, barnyardgrass (Echinochloa crus-galli), read-out: Visual Growth Reduction (%) 14 Days After Application, ECHCG
[11] = Oryza sativa, rice (Oryza sativa), read-out: Visual Growth Reduction (%) 14 Days After Application, ORYSA
[12] = Setaria faberi, giant foxtail (Setaria faberi), read-out: Visual Growth Reduction (%) 14 Days After Application, SETFA
[13] = Triticum aestivum, wheat, spring (Triticum aestivum), read-out: Visual Growth Reduction (%) 14 Days After Application, TRZAS
[14] = Zea mays, maize, corn (Zea mays), read-out: Visual Growth Reduction (%) 14 Days After Application, ZEAMX

Question: Which melting point does the source give for `COC(=O)c1nc(-c2ccc3cc[nH]c3c2)c(Cl)c(N)c1Cl` [Compound 1.05] here?
Answer: 174 to 179 °C

Question: What about the pest or weed control at 35 g/ha [1, 3] of the same compound?
Answer: 45 to 59%

Question: What about the pest or weed control at 70 g/ha [1, 3] of the same compound?
Answer: 95 to 100%

Question: And the pest or weed control at 140 g/ha [1, 3]?
Answer: 85 to 94%

Question: What about the pest or weed control at 35 g/ha [1, 4] of the same compound?
Answer: 60 to 74%

Question: And the pest or weed control at 70 g/ha [1, 4]?
Answer: 75 to 84%

Question: And the pest or weed control at 140 g/ha [1, 4]?
Answer: 95 to 100%

Question: What about the pest or weed control at 35 g/ha [1, 5] of the same compound?
Answer: 30 to 44%

Question: What about the pest or weed control at 70 g/ha [1, 5] of the same compound?
Answer: 45 to 59%

Question: And the pest or weed control at 140 g/ha [1, 5]?
Answer: 60 to 74%

Question: And the pest or weed control at 35 g/ha [1, 6]?
Answer: 85 to 94%

Question: What about the pest or weed control at 70 g/ha [1, 6] of the same compound?
Answer: 95 to 100%

Question: And the pest or weed control at 140 g/ha [1, 6]?
Answer: 95 to 100%

Question: What about the pest or weed control at 35 g/ha [1, 7] of the same compound?
Answer: 30 to 44%

Question: What about the pest or weed control at 70 g/ha [1, 7] of the same compound?
Answer: 30 to 44%

Question: And the pest or weed control at 140 g/ha [1, 7]?
Answer: 45 to 59%

Question: And the pest or weed control at 35 g/ha [1, 8]?
Answer: 95 to 100%

Question: What about the pest or weed control at 70 g/ha [1, 8] of the same compound?
Answer: 95 to 100%

Question: What about the pest or weed control at 140 g/ha [1, 8] of the same compound?
Answer: 95 to 100%

Question: And the pest or weed control at 35 g/ha [2, 9]?
Answer: 0 to 29%

Question: And the pest or weed control at 70 g/ha [2, 9]?
Answer: 0 to 29%

Question: And the pest or weed control at 140 g/ha [2, 9]?
Answer: 0 to 29%

Question: What about the pest or weed control at 35 g/ha [2, 10] of the same compound?
Answer: 0 to 29%

Question: And the pest or weed control at 70 g/ha [2, 10]?
Answer: 0 to 29%

Question: What about the pest or weed control at 140 g/ha [2, 10] of the same compound?
Answer: 60 to 74%

Question: And the pest or weed control at 35 g/ha [2, 11]?
Answer: 0 to 29%

Question: And the pest or weed control at 70 g/ha [2, 11]?
Answer: 0 to 29%

Question: What about the pest or weed control at 140 g/ha [2, 11] of the same compound?
Answer: 0 to 29%

Question: What about the pest or weed control at 35 g/ha [2, 12] of the same compound?
Answer: 30 to 44%

Question: And the pest or weed control at 70 g/ha [2, 12]?
Answer: 45 to 59%

Question: What about the pest or weed control at 140 g/ha [2, 12] of the same compound?
Answer: 60 to 74%

Question: And the pest or weed control at 35 g/ha [2, 13]?
Answer: 0 to 29%

Question: And the pest or weed control at 70 g/ha [2, 13]?
Answer: 30 to 44%

Question: And the pest or weed control at 140 g/ha [2, 13]?
Answer: 45 to 59%

Question: And the pest or weed control at 35 g/ha [2, 14]?
Answer: 0 to 29%

Question: And the pest or weed control at 70 g/ha [2, 14]?
Answer: 30 to 44%

Question: And the pest or weed control at 140 g/ha [2, 14]?
Answer: 45 to 59%

Question: With `COc1c(C(=O)O)nc(-c2ccc3cc[nH]c3c2F)c(F)c1N` [Compound 1.17] as the compound, how does the melting point read?
Answer: 133 to 140 °C

Question: What about the pest or weed control at 35 g/ha [1, 3] of the same compound?
Answer: 45 to 59%

Question: And the pest or weed control at 70 g/ha [1, 3]?
Answer: 45 to 59%

Question: What about the pest or weed control at 140 g/ha [1, 3] of the same compound?
Answer: 60 to 74%

Question: And the pest or weed control at 35 g/ha [1, 4]?
Answer: 95 to 100%

Question: And the pest or weed control at 70 g/ha [1, 4]?
Answer: 95 to 100%

Question: What about the pest or weed control at 140 g/ha [1, 4] of the same compound?
Answer: 95 to 100%

Question: What about the pest or weed control at 35 g/ha [1, 5] of the same compound?
Answer: 95 to 100%

Question: What about the pest or weed control at 70 g/ha [1, 5] of the same compound?
Answer: 95 to 100%

Question: What about the pest or weed control at 140 g/ha [1, 5] of the same compound?
Answer: 95 to 100%

Question: And the pest or weed control at 35 g/ha [1, 6]?
Answer: 95 to 100%

Question: What about the pest or weed control at 70 g/ha [1, 6] of the same compound?
Answer: 95 to 100%

Question: And the pest or weed control at 140 g/ha [1, 6]?
Answer: 95 to 100%

Question: What about the pest or weed control at 35 g/ha [1, 7] of the same compound?
Answer: 95 to 100%

Question: What about the pest or weed control at 70 g/ha [1, 7] of the same compound?
Answer: 95 to 100%

Question: And the pest or weed control at 140 g/ha [1, 7]?
Answer: 95 to 100%

Question: And the pest or weed control at 35 g/ha [1, 8]?
Answer: 95 to 100%

Question: And the pest or weed control at 70 g/ha [1, 8]?
Answer: 95 to 100%

Question: And the pest or weed control at 140 g/ha [1, 8]?
Answer: 95 to 100%

Question: And the pest or weed control at 35 g/ha [2, 9]?
Answer: 45 to 59%

Question: What about the pest or weed control at 70 g/ha [2, 9] of the same compound?
Answer: 45 to 59%

Question: And the pest or weed control at 140 g/ha [2, 9]?
Answer: 45 to 59%

Question: And the pest or weed control at 35 g/ha [2, 10]?
Answer: 85 to 94%

Question: What about the pest or weed control at 70 g/ha [2, 10] of the same compound?
Answer: 85 to 94%

Question: What about the pest or weed control at 140 g/ha [2, 10] of the same compound?
Answer: 85 to 94%

Question: And the pest or weed control at 35 g/ha [2, 11]?
Answer: 0 to 29%

Question: And the pest or weed control at 70 g/ha [2, 11]?
Answer: 0 to 29%

Question: And the pest or weed control at 140 g/ha [2, 11]?
Answer: 0 to 29%

Question: What about the pest or weed control at 35 g/ha [2, 12] of the same compound?
Answer: 75 to 84%

Question: And the pest or weed control at 70 g/ha [2, 12]?
Answer: 85 to 94%

Question: And the pest or weed control at 140 g/ha [2, 12]?
Answer: 85 to 94%

Question: What about the pest or weed control at 35 g/ha [2, 13] of the same compound?
Answer: 60 to 74%

Question: And the pest or weed control at 70 g/ha [2, 13]?
Answer: 60 to 74%

Question: What about the pest or weed control at 140 g/ha [2, 13] of the same compound?
Answer: 60 to 74%

Question: And the pest or weed control at 35 g/ha [2, 14]?
Answer: 60 to 74%

Question: And the pest or weed control at 70 g/ha [2, 14]?
Answer: 75 to 84%

Question: What about the pest or weed control at 140 g/ha [2, 14] of the same compound?
Answer: 75 to 84%
